Read-outs that look alike come from different tables or passages of the source.
Columns and labels:
Caco-2 cells = type: in vitro ADME
Protocol: Caco-2 cells were obtained from ATCC (Manassas, Va., USA) and grown in 75 cm^2 flasks with approximately 0.5-1×10^6 cells per flask, at a temperature of 37° C. in a 5% CO2 atmosphere with a relative humidity of 95%. The culture growth medium consisted of Dulbecco's Modified Eagle Medium (DMEM) supplemented with 10% heat-inactivated fetal bovine serum (FBS), 1% nonessential amino acids, and 2 mM L-glutamine. The medium was replaced twice weekly. All medium supplements were obtained from Biological Industries (Beth-Haemek, Israel).
Cells in a passage range of 52-60 were seeded at a density of […] on untreated culture inserts of a polycarbonate membrane with 0.4 μm pores and a surface area of 1.1 cm^2. The culture inserts containing Caco-2 monolayers were placed in Costar® 24-Transwell plates (12 mm wells). The culture medium was changed every other day. […]
The permeability coefficient (Papp) for each compound was calculated from the linear plot of drug accumulated versus time, using the following equation: […]
Intestinal permeability towards huperzine A was evaluated using an in vitro model with Caco-2 epithelial colorectal cell culture, and using an ex-vivo animal intestine model (Ussing chamber model), as described in the Materials and Methods section. […]

[1] = tested on: intestinal tissue (duodenum, jejunum, colon); type: in vitro ADME, rat
in vivo = details: rat, 0.5 mg/kg
Protocol: All surgical and experimental procedures were reviewed and approved by the Animal Experimentation Ethics Committee of the Hebrew University Hadassah Medical School, Jerusalem. Male Wistar rats (Harlan, Israel), 290-350 grams in weight, were used for all surgical procedures.
Animals were anesthetized for the period of surgery by intra-peritoneal injection of 1 ml/kg of ketamine (9%)-xylazine (1%) solution. An indwelling cannula was placed in the right jugular vein of each animal for systemic blood sampling, as described in Jiang et al. [Curr Med Chem 2003, 10:2231-2252]. The cannula was tunneled beneath the skin and exteriorized at the dorsal part of the neck. After completion of the surgical procedure, the animals were transferred to metabolic cages to recover overnight (12-18 hours). During this recovery period and throughout the experiment, food, but not water, was deprived. Animals were randomly assigned to the different experimental groups.
In order to study the pharmacokinetic parameters of huperzine A, identical doses (0.5 mg/kg) of huperzine A dissolved in water were administered to 6 animals by oral gavage needle and to 6 animals by intravenous infusion through the jugular vein cannula followed by injection of 0.2 ml of heparinized saline (50 IU/ml) to ensure the delivery of the whole dose. Systemic blood samples (400 μl) were taken 5 minutes prior to dosing, and at various time periods post-dose, as indicated. To prevent dehydration, equal volumes of physiological solution were introduced to the rats following each withdrawal of a blood sample.
Another group (4 animals) received huperzine A as an intra-peritoneal injection. The doses, the vehicle and the volume used in the intra-peritoneal administration were similar to those used in the oral administration experiments.
Absorption of huperzine A from the colon was studied using an additional experimental group (7 animals). A cannula was placed to the cecum, tunneled beneath the skin and exteriorized at the dorsal part of the neck. Following overnight recovery, the animals were dosed through the colonic cannula and the pharmacokinetic experiment was conducted. The doses, the vehicle and the volume used in the colonic administration were similar to those used in the oral administration experiments. The drug was infused over the course of 90 minutes.
Absorption of huperzine A from the duodenum was studied using another experimental group (5 animals). A cannula was placed to the duodenum, tunneled beneath the skin and exteriorized at the dorsal part of the neck. Following overnight recovery, the animals were dosed through the duodenal cannula and the pharmacokinetic experiment was conducted. […]
Huperzine A concentrations in plasma samples were determined by an HPLC assay. The area under plasma concentrations versus time curves (AUC) for huperzine A in individual rats were analyzed using WinNonlin® Professional software version 5.0.1, according to the non-compartmental analysis model, as were other pharmacokinetic parameters (elimination constant (10; elimination half-life (T1/2); peak concentration (Cmax); and time to reach peak concentration (Tmax)). The absolute bioavailability (F) of huperzine A was calculated from the ratio of the AUCs normalized by dose after oral and intravenous administration.
All tested compounds were analyzed using a Waters 2695 Separation Module HPLC system with a Waters 2475 Fluorescence Detector and a Waters 2996 Photodiode Array Detector (Waters Corporation). […]

[2] = type: physicochemical; details: 1 μg/ml
Protocol: 0.5 ml of a 1 μg/ml aqueous solution of huperzine A was placed in glass tubes and heated in an oven for 30, 60 or 90 minutes. The samples were then reconstituted with double-distilled water and the amount of remaining huperzine A was determined by HPLC, as described hereinabove.

[3] = in vivo, po, cited from earlier work

C/C=C1\[C@H]2C=C(C)C[C@]1(N)c1ccc(=O)[nH]c1C2 [huperzine A]
permeability coefficient (Papp) (Caco-2 cells): lower than that of antipyrine, and higher than that of mannitol | permeability towards huperzine A in the colon [1]: lower than in the jejunum and duodenum, but was still significant | bioavailability (in vivo; male, Wistar): ~50% | half-life (in vivo; male, Wistar): ~1.67 h | bioavailability following colonic infusion (in vivo; po): significantly lower than the bioavailability following oral bolus | bioavailability following duodenal infusion (in vivo; po): at least as high as the bioavailability following oral bolus | time of maximal plasma levels (Cmax) (in vivo; po): 25 to 30 min | temperature at which degradation of huperzine A was observed [2]: ≥ 150 °C | bioavailability ([3]; human): 99% | half-lives ([3]; human): 6 to 12 h | time to peak serum concentration [3]: approximately 1 hour

From US20130040982A1, “ORAL SUSTAINED RELEASE FORMULATION OF HUPERZINE A” (Yissum Research Development Company of the Hebrew …, priority 2010, published 2013)
